Read-outs that look alike come from different tables or passages of the source.
Assays:
[1] = test system: chloroquine-sensitive strain 3D7 of P. falciparum; test: P. falciparum growth inhibition in culture, strain 3D7; assay type: cell-based, Plasmodium falciparum; conditions: for result of the 16 tested inhibitors in words (binding): summary of Table 5
[2] = test system: chloroquine-resistant strain K1 of P. falciparum; test: P. falciparum growth inhibition in culture, strain K1; assay type: cell-based, Plasmodium falciparum
[3] = test system: HSV-1 strain F; test: HSV-1 infection of Vero cells, virus titer; assay type: cell-based; conditions: FIG. 5 bottom right panel; virus not named
[4] = test system: P. falciparum; conditions: Table 3 section B, high throughput screen [27, 28], cited from earlier work; for EC50: read-out: ED50 in 3D7
[5] = target: KSHV protease (Human herpesvirus 8 type P, UniProt Q2HRB6); test: Surface Plasmon Resonance, KSHV protease; assay type: binding; parameters: herpes simplex virus (HSV) proteases (including HSV2, VZV, EBV, CMV, and KSHV); conditions: SPR, FIG. 4
Method: (§1) Four inhibitors were evaluated; our top ranking one (TMPyP4) clearly binds to all three proteases as predicted. […] A third inhibitor, GW8510, predicted to bind fails (i.e., a misprediction). […] Our inhibitor prediction is completely consistent with the observed experimental data which is verified further by cell culture studies in FIG. 4 and compared to existing antiherpes drugs.

[6] = target: HSV protease; test: Surface Plasmon Resonance, HSV protease; assay type: binding; conditions: SPR, FIG. 4
Method: as §1

[7] = target: CMV protease (Human cytomegalovirus, UniProt P16753); test: Surface Plasmon Resonance, CMV protease; assay type: binding; parameters: herpes simplex virus (HSV) proteases (including HSV2, VZV, EBV, CMV, and KSHV); conditions: SPR, FIG. 4
Method: as §1

[8] = test system: HIV-1 gp41 HR1 wild-type and mutants; conditions: cited from earlier work
[9] = target: Integrase (Human immunodeficiency virus type 1 group M subtype B, UniProt P04585); conditions: HIV-1 target Integrase; read-out: Inhibitory effect (uM), IC50, Integrase; cited from earlier work
[10] = Table 3 section A, mean of at least two measurements, read-out: ED50 in 3D7
[11] = Table 5, P. falciparum ED50 in 3D7 and K1
[12] = Table 3 section A, mean of at least two measurements, read-out: ED50 in K1
[13] = Table 5, read-out: ED50 (μM) in K1
[14] = Table 5, read-out: ED50 (μM) in 3D7
[15] = Plasmodium falciparum, K1, Table 3 section A, mean of at least two measurements, read-out: ED50 in K1
[16] = Plasmodium falciparum, K1, Table 5, read-out: ED50 (μM) in K1
[17] = Plasmodium falciparum, 3D7, Table 3 section A, mean of at least two measurements, read-out: ED50 in 3D7
[18] = Plasmodium falciparum, 3D7, Table 5, read-out: ED50 (μM) in 3D7

O=CN1CCN(c2ccc(/C=C3\C(=O)Nc4ccccc43)cc2)CC1 [SU4984]
EC50 [1, 10]: > 40 µM
experimentally determined to work [1, 11]: N

CN1CCCC1CCn1cc(C2=C(c3c[nH]c4ccccc34)C(=O)NC2=O)c2ccccc21 (stereo not drawn) [Bisindolylmaleimide II]
EC50 [2, 12]: 1 to 10 µM
EC50 [2, 13]: 1 to 10 µM
EC50 [1, 10]: 1 to 10 µM
experimentally determined to work [1, 11]: N
EC50 [1, 14]: 1 to 10 µM

Nc1nc2c(ncn2COCCO)c(=O)[nH]1 [acylovir]
effectiveness after passage for several cycles with both acylovir and TMPyP4 [3]: complete resistance to acylovir occurs

COc1ccc(C[C@H](N)C(=O)N[C@H]2[C@@H](O)[C@H](n3cnc4c(N(C)C)ncnc43)O[C@@H]2CO)cc1 [Puromycin]
% Inhibition at 10 μM in [4]: 98.9%

Cc1cc(C)c(/C=C2\C(=O)Nc3ccc(Cl)cc32)[nH]1 [SU5614]
experimentally determined to work [1, 11]: N

COc1ccc(CCN2CCC(Nc3nc4ccccc4n3Cc3ccc(F)cc3)CC2)cc1 [Astemizole]
% Inhibition at 10 μM in [4]: 97.6%

C[C@]12C=CC(=O)C=C1CC[C@@H]1C2=CC[C@]2(C)[C@@H](C(=O)CN3CCN(c4cc(N5CCCC5)nc(N5CCCC5)n4)CC3)CC[C@@H]12.O=C(O)/C=C\C(=O)O [U-74389G]
EC50 [2, 12]: < 1 µM
EC50 [2, 13]: < 1 µM
EC50 [1, 10]: 0.83 µM
experimentally determined to work [1, 11]: Y (Y—yes (<=1uM ED50))
EC50 [1, 14]: 0.825 µM
result of the 16 tested inhibitors in words (binding) [1]: very strong binding

O=C1Nc2ccc3ncsc3c2/C1=C/Nc1ccc(S(=O)(=O)Nc2ccccn2)cc1 [GW8510]
disassociation constant (Kd), KSHV protease [5]: fails
disassociation constant (Kd), HSV protease [6]: fails
EC50 [2, 12]: 1 µM
EC50 [2, 13]: 1 µM
EC50 [1, 10]: 1 to 10 µM
experimentally determined to work [1, 11]: N
EC50 [1, 14]: 1 to 10 µM
disassociation constant (Kd), CMV protease [7]: fails

O=C(O)CCC(=O)Nc1ccc(S(=O)(=O)Nc2nccs2)cc1 [Succinylsulfathiazole]
EC50 [2, 15]: > 40 µM
EC50 [2, 16]: > 40 µM
EC50 [1, 17]: > 40 µM
EC50 [1, 18]: > 40 µM
experimentally determined to work [1, 11]: N

CC[C@]1(O)C[C@@H]2CN(CCc3c([nH]c4ccccc34)[C@@](C(=O)OC)(c3cc4c(cc3OC)N(C)[C@H]3[C@@](O)(C(N)=O)[C@H](O)[C@]5(CC)C=CCN6CC[C@]43[C@@H]65)C2)C1 [Vindesine]
% Inhibition at 10 μM in [4]: 81.9%

enfuvirtide
EC50 ([8]; HR1 Wild-type): 0.012 µg/mL
EC50 ([8]; HR1 mutation N42T + N43K): 0.388 µg/mL
EC50 ([8]; HR1 mutation N42T + N43S): 0.727 µg/mL
EC50 ([8]; HR1 mutation N42T): 0.045 µg/mL
EC50 ([8]; HR1 mutation V38A + N42D): 1.685 µg/mL
EC50 ([8]; HR1 mutation V38A + N42T): 1.782 µg/mL
EC50 ([8]; HR1 mutation V38A): 0.188 µg/mL
EC50 ([8]; HR1 mutation V38E + N42S): 6.156 µg/mL

Cc1c(C(=O)c2cccc3ccccc23)c2cccc3c2n1[C@H](CN1CCOCC1)CO3 [R-(+)-WIN55212-2]
EC50 [2, 12]: 10 to 40 µM
EC50 [2, 13]: 10 to 40 µM
experimentally determined to work [1]: N
EC50 [1, 10]: 10 to 40 µM
EC50 [1, 14]: 10 to 40 µM

CN([C@@H](Cc1ccc(OS(=O)(=O)c2cccc3cnccc23)cc1)C(=O)N1CCN(c2ccccc2)CC1)S(=O)(=O)c1cccc2cnccc12 [KN62]
EC50 [2, 12]: < 1 µM
EC50 [2, 13]: < 1 µM
EC50 [1, 10]: 0.69 µM
experimentally determined to work [1, 11]: Y (Y—yes (<=1uM ED50))
EC50 [1, 14]: 0.69 µM
result of the 16 tested inhibitors in words (binding) [1]: very strong binding

C=CC1=C(C)c2cc3[nH]c(cc4nc(cc5[nH]c(cc1n2)c(C)c5CCC(=O)O)C(CCC(=O)O)=C4C)c(C)c3C=C [Protoporphrin, Protoporphyrin IX]
EC50 [2, 15]: 10 to 40 µM
EC50 [2, 16]: 10 to 40 µM
EC50 [1, 17]: 10 to 40 µM
EC50 [1, 18]: 10 to 40 µM
experimentally determined to work [1, 11]: N

CN(Cc1cnc2nc(N)nc(N)c2n1)c1ccc(C(=O)N[C@@H](CCC(=O)O)C(=O)O)cc1 [Methotrexate]
% Inhibition at 10 μM in [4]: 98.4%
EC50 [4]: 0.05 µM

CCN(CCO)CCCC(C)Nc1ccnc2cc(Cl)ccc12 (stereo not drawn) [Hydroxychloroquine]
IC50 [9]: > 100 µM

O=C(c1ccc(OCCN2CCCCC2)cc1)c1c(-c2ccc(O)cc2)sc2cc(O)ccc12 [Raloxifene]
% Inhibition at 10 μM in [4]: 97.1%
EC50 [4]: < 0.5 µM
